Data reported in paper PMC8508980, “Design, Synthesis and Anticancer Profile of New 4-(1H-benzo[d]imidazol-1-yl)pyrimidin-2-amine-Linked Sulfonamide Derivatives with V600EBRAF Inhibitory Effect” (International Journal of Molecular Sciences, 2021).

Key:
A375 cells = assay: Antiproliferative MTT assay; format: cell-based; conditions: Homo sapiens, A-375, 48 h, mean ± S.D. of two experiments
Protocol: (§1) The effect of final target compounds over A375 and SK-MEL-5 was performed using reported procedures (detailed procedure is located in the Supplementary Information page 51s). […]
(§2) Evaluation of the Antiproliferative Activity Against A375 and SK-MEL-5
(§3) A375 and SK-MEL-5 cells were purchased from American Type Culture Collection (ATCC, Ro ckv ille, MD, USA) and maintained in Dulbecco’s modified eagle medium (DMEM, Welgene, Daegu, Republic of Korea) supplemented with 10% fetal bovine serum (FBS, Welgene, Daegu, Republic of Korea) and 1% penicillin/streptomycin (Welgene, Daegu, Republic of Korea) in a hu midified atmo sphere with 5% CO2 at 37 °C. Both cells were taken from culture substrate with 0.05% trypsin-0.02% EDTA and plated at a density of 5 × 10^3 cells/well in 96 well plates and then incubated at 37 °C fo r 24 h in a hu midified atmo sphere with 5% CO2 prior to treatment with various concentrations (3-fold serial dilution, 12 points) of the tested compounds. The cells were incubated for 48 h after treatment with the test compounds. The cell viability was assessed by the conventional 3-(4,5-dimethylthiazol-2-yl)-2,5-diphenyltetrazolium bromide (MTT) reduction assay. MTT assays were carried out with CellTiter 96® (Promega) according to the manufacturer’s instructions. The absorbance at 590 nm was recorded using EnVision 2103 (Perkin Elmer; Bo ston , MA, USA). The IC50 values were calculated using GraphPad Prism 4.0

SK-MEL-5 cells = assay: Antiproliferative MTT assay; format: cell-based; conditions: Homo sapiens, 48 h, mean ± S.D. of two experiments
Protocol: as §1, §2, §3

`CNC(=O)c1cc(Oc2ccc(NC(=O)Nc3ccc(Cl)c(C(F)(F)F)c3)cc2)ccn1` [Sorafenib, reference compound] gave an IC50 (A375 cells) of 5.25 ± 0.74 µM and an IC50 (SK-MEL-5 cells) of 9.22 ± 0.81 µM.
